# How the values were obtained:
# Human 5-lipoxygenase = biological target: T1, Human 5-lipoxygenase (Homo sapiens, UniProt P09917); test: Activity of compounds against 5-LO enzyme (LTB4 measurement and/or fluorescence method); type: biochemical; settings: for inhibition at 10 µM: 5-LO, single concentration of 10 uM in duplicate; for IC50: 6 or 11 point dose response in duplicate
# T1 construct: purchased Cayman 60402; host or cells: insect cells
# T1 sequence (P09917 1-674): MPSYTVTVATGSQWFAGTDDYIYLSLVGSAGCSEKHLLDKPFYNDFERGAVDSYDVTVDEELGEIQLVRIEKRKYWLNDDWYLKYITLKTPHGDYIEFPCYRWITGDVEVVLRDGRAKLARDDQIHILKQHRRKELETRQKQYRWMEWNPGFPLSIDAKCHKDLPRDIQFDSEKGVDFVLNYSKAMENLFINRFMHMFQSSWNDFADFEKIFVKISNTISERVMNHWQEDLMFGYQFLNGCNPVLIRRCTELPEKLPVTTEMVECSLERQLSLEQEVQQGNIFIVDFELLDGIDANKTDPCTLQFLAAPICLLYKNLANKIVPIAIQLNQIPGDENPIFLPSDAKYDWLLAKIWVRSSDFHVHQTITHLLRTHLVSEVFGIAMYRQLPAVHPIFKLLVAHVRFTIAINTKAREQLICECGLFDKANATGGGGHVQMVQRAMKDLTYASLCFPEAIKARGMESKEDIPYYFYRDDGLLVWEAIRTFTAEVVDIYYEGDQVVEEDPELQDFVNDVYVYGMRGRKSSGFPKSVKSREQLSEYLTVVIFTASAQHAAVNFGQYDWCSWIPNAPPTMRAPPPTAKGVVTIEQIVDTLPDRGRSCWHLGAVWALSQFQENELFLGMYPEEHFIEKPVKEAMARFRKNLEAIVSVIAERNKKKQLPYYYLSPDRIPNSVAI
# In short: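 Two read-outs: LTB4 measured by EIA and/or LC/MS/MS with LTB4-d4 standard after 15 min RT compound preincubation with insect-cell 5-LO and a 5 min 37 °C reaction on 3 uM arachidonic acid (0.1 mM ATP, pH 7.4). The room-temperature fluorescence format used 20 uM H2DCFDA, 100 uM ATP, 3 uM arachidonic acid, 5 min; IC50 from 6/11-point curves.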
melting point [°C],inhibition at 10 µM (Human 5-lipoxygenase) [%],IC50 (Human 5-lipoxygenase) [nM],Compound
179.1 to 180,< 40,–,"CCc1nc2cc(Cl)ccn2c1C(=O)NCc1ccc(N2CCC(O)CC2)cc1 [compound 199, 7-Chloro-2-ethyl-N-(4-(4-hydroxypiperidin-1-yl)benzyl)imidazo[1,2-a]pyridine-3-carboxamide]"
201.3 to 202.8,< 40,–,"CCc1nc2cc(Cl)ccn2c1C(=O)NCc1ccc(N2C=CC(=O)CC2)cc1 [compound 201, 7-Chloro-2-ethyl-N-(4-(4-oxo-3,4-dihydropyridin-1(2H)-yl)benzyl)imidazo[1,2-a]pyridine-3-carboxamide]"
192.6,< 40,–,"CCc1nc2cc(Cl)ccn2c1C(=O)NCc1cccc(-c2ccc(OC(F)(F)F)cc2)c1 [compound 204, 7-Chloro-2-ethyl-N-((4′-(trifluoromethoxy)biphenyl-3-yl)methyl)imidazo[1,2-a]pyridine-3-carboxamide]"
189.7,< 40,–,"CCc1nc2ccc(Br)cn2c1C(=O)NCc1ccc(OCc2ccc(OC(F)(F)F)cc2)cc1 [compound 206, 6-Bromo-2-ethyl-N-(4-(4-(trifluoromethoxy)benzyloxy)benzyl)imidazo[1,2-a]pyridine-3-carboxamide]"
138.7,> 69,1000 to 20000,"CCc1nc2ccccn2c1C(=O)NCc1ccc(OCc2ccc(OC(F)(F)F)cc2)cc1 [compound 207, 2-Ethyl-N-(4-(4-(trifluoromethoxy)benzyloxy)benzyl)imidazo[1,2-a]pyridine-3-carboxamide]"
63.8,> 69,1000 to 20000,"CCc1nc2cc(Cl)ccn2c1C(=O)NCc1ccc(N2CCC(Cc3ccccc3)CC2)cc1 [compound 208, N-(4-(4-Benzylpiperidin-1-yl)benzyl)-7-chloro-2-ethylimidazo[1,2-a]pyridine-3-carboxamide]"
164.5,> 69,–,"CCc1nc2cc(Cl)ccn2c1C(=O)NCc1ccc(N2CCC(c3ccccc3)CC2)cc1 [compound 209, 7-Chloro-2-ethyl-N-(4-(4-phenylpiperidin-1-yl)benzyl)imidazo[1,2-a]pyridine-3-carboxamide]"
138.2,40 to 69,–,"CCc1nc2ccc(Cl)cn2c1C(=O)NCc1ccc(N2CCC(c3ccccc3)CC2)cc1 [compound 210, 6-Chloro-2-ethyl-N-(4-(4-phenylpiperidin-1-yl)benzyl)imidazo[1,2-a]pyridine-3-carboxamide]"
121.3,> 69,1000 to 20000,"CCC1=C(C(=O)NCc2ccc(N3CCC(C)(C)CC3)cc2)N2C=CC(Cl)=CC2N1 (stereo not shown) [compound 211, 7-Chloro-N-(4-(4,4-dimethylpiperidin-1-yl)benzyl)-2-ethyl-1,8a-dihydroimidazo[1,2-a]pyridine-3-carboxamide]"
179.8,< 40,–,"CCc1nc2cc(Cl)ccn2c1C(=O)NCc1ccc(N2CCC(CO)CC2)cc1 [compound 212, 7-Chloro-2-ethyl-N-(4-(4-(hydroxymethyl)piperidin-1-yl)benzyl)imidazo[1,2-a]pyridine-3-carboxamide]"
183.6,< 40,–,"CCc1nc2ccc(Cl)cn2c1C(=O)NCc1ccc(N2CCC(COc3ccc(OC(F)(F)F)cc3)CC2)cc1 [compound 213, 6-chloro-2-ethyl-N-(4-(4-((4-(trifluoromethoxy)phenoxy)methyl)piperidin-1-yl)benzyl)imidazo[1,2-a]pyridine-3-carboxamide]"
189.5,< 40,–,"CCc1nc2cc(Cl)ccn2c1C(=O)NCc1ccc(N2CCC(COc3ccc(OC(F)(F)F)cc3)CC2)cc1 [compound 214, 7-Chloro-2-ethyl-N-(4-(4-((4-(trifluoromethoxy)phenoxy)methyl)piperidin-1-yl)benzyl)imidazo[1,2-a]pyridine-3-carboxamide]"
169.6,40 to 69,–,"CCc1nc2cc(Cl)ccn2c1C(=O)NCc1ccc(NCc2ccc(OC(F)(F)F)cc2)cc1 [compound 215, 7-Chloro-2-ethyl-N-(4-((4-(trifluoromethoxy)benzyl)amino)benzyl)imidazo[1,2-a]pyridine-3-carboxamide]"
168.3,40 to 69,–,"C=C1CCN(c2ccc(CNC(=O)c3c(CC)nc4cc(Cl)ccn34)cc2)CC1 [compound 218, 7-Chloro-2-ethyl-N-(4-(4-methylenepiperidin-1-yl)benzyl)imidazo[1,2-a]pyridine-3-carboxamide]"
133.6,> 69,< 1000,"CCc1nc2cc(C)ccn2c1C(=O)NCc1ccc(Oc2ccc(OC(F)(F)F)cc2)cc1 [compound 219, 2-Ethyl-7-methyl-N-(4-(4-(trifluoromethoxy)phenoxy)benzyl)imidazo[1,2-a]pyridine-3-carboxamide]"
203.7,40 to 69,–,"CCc1nc2cc(C)ccn2c1C(=O)NCc1ccc(N2CCN(c3ccc(F)cc3)CC2)cc1 [compound 220, 2-Ethyl-N-(4-(4-(4-fluorophenyl)piperazin-1-yl)benzyl)-7-methylimidazo[1,2-a]pyridine-3-carboxamide]"
141.7,< 40,–,"CCc1nc2ccc(Cl)cn2c1C(=O)NCc1ccc(N2CCC3CCCCC3C2)cc1 (stereo not shown) [compound 221, 6-Chloro-2-ethyl-N-(4-(octahydroisoquinolin-2(1H)-yl)benzyl)imidazo[1,2-a]pyridine-3-carboxamide]"
174.2,< 40,–,"CCc1nc2cc(Cl)ccn2c1C(=O)NCc1ccc(N2CCC3CCCCC3C2)cc1 (stereo not shown) [compound 222, 7-Chloro-2-ethyl-N-(4-(octahydroisoquinolin-2(1H)-yl)benzyl)imidazo[1,2-a]pyridine-3-carboxamide]"
204.1,> 69,1000 to 20000,"CCc1nc2c(F)cccn2c1C(=O)NCc1ccc(N2CCN(c3ccc(F)cc3)CC2)cc1 [compound 223, 2-Ethyl-8-fluoro-N-(4-(4-(4-fluorophenyl)piperazin-1-yl)benzyl)imidazo[1,2-a]pyridine-3-carboxamide]"
105.6,> 69,< 1000,"CCc1nc2c(F)cccn2c1C(=O)NCc1ccc(Oc2ccc(OC(F)(F)F)cc2)cc1 [compound 224, 2-Ethyl-8-fluoro-N-(4-(4-(trifluoromethoxy)phenoxy)benzyl)imidazo[1,2-a]pyridine-3-carboxamide]"
133.4,> 69,< 1000,"CCc1nc2ccc(F)cn2c1C(=O)NCc1ccc(Oc2ccc(OC(F)(F)F)cc2)cc1 [compound 225, 2-Ethyl-6-fluoro-N-(4-(4-(trifluoromethoxy)phenoxy)benzyl)imidazo[1,2-a]pyridine-3-carboxamide]"
152.9,< 40,–,"CCc1nc2ccc(Br)cn2c1C(=O)NCc1ccc(Oc2ccc(OC(F)(F)F)cc2)cc1 [compound 226, 6-Bromo-2-ethyl-N-(4-(4-(trifluoromethoxy)phenoxy)benzyl)imidazo[1,2-a]pyridine-3-carboxamide]"
189.2,> 69,1000 to 20000,"CCc1nc2ccccn2c1C(=O)NCc1ccc(N2CCN(c3ccc(F)cc3)CC2)cc1 [compound 227, 2-Ethyl-N-(4-(4-(4-fluorophenyl)piperazin-1-yl)benzyl)imidazo[1,2-a]pyridine-3-carboxamide]"
200.9,> 69,1000 to 20000,"CCc1nc2ccc(F)cn2c1C(=O)NCc1ccc(N2CCN(c3ccc(F)cc3)CC2)cc1 [compound 228, 2-Ethyl-6-fluoro-N-(4-(4-(4-fluorophenyl)piperazin-1-yl)benzyl)imidazo[1,2-a]pyridine-3-carboxamide]"
218.1,< 40,–,"CCc1nc2ccc(Br)cn2c1C(=O)NCc1ccc(N2CCN(c3ccc(F)cc3)CC2)cc1 [compound 229, 6-Bromo-2-ethyl-N-(4-(4-(4-fluorophenyl)piperazin-1-yl)benzyl)imidazo[1,2-a]pyridine-3-carboxamide]"
161.1,< 40,–,"CCc1nc2ccc(Cl)cn2c1C(=O)NCc1ccc(N2CCC(CO)CC2)cc1 [compound 230, 6-Chloro-2-ethyl-N-(4-(4-(hydroxymethyl)piperidin-1-yl)benzyl)imidazo[1,2-a]pyridine-3-carboxamide]"

# — patent US9029389B2 (Institut Pasteur Korea, priority 2011, dated 2015)
